From PMC4510133 (PLoS ONE, 2015)
Where “and” joins values, the source holds several entries; their conditions need not be identical. Equal entries are not always repeated. Where two headings read alike, the source gives them in different places.

Key:
[1] = target: T1, spinach Rubisco (Spinacia oleracea, UniProt P00875); experiment: Radiolabelled [3H]-(±)-ABA binding assay (saturation and competition); set-up: Commercially available Rubisco from spinach (Sigma-Aldrich); catalogue # R8000; purchased Sigma-Aldrich R8000; settings: 25 nM [3H]-(±)-ABA
Method: A fresh aliquot of this Rubisco was subsequently dissolved in binding buffer (50 mM bicine, 15 mM MgCl2, 20 mM NaCl, pH 7.9) and placed on ice. The total volume for each assay sample was 30 μL. Protein solution (30 μg protein) was mixed with [^3H]-(±)-ABA (specific activity 37 Ci mmol^-1 radiolabelled: non-radiolabelled ratio 1.8:1) at the indicated concentrations in the presence and absence of 500 μM (+)-ABA, incubated at RT for 30 minutes. Samples (15 μL) from each reaction were transferred into SPN columns (G-biosciences), to which 100 μL of cold OrgoSol^TM buffer (chilled at -20°C) was added. The columns were spun at 10,000 x g for 10 s and the wash repeated once. The matrix of each SPN column was then removed and placed in scintillation vials containing Aqasol^TM scintillation fluid and soaked for at least 24 hours prior to counting radioactivity using a Beckman Coulter Multi-Purpose Scintillation Counter. Control samples not containing the protein, but treated with [^3H]-(±)-ABA, were also prepared and values subtracted from experimental samples. Signal corresponding to specific [^3H]-(±)-ABA binding was calculated from the difference between samples with [^3H]-(±)-ABA and those containing 1000-fold excess of non-radiolabelled (+)-ABA. Each sample was replicated 5–10 times and readings averaged. Competition was performed as described above, with the concentration of [^3H]-(±)-ABA at 25 nM in all samples, and non-radiolabeled (+)-ABA added at the indicated concentrations. The same procedure was applied using non-radiolabeled (-)-ABA, PA (phaseic acid), and trans-ABA. Values obtained for the same experiment washed with a 10,000 fold excess of unlabelled (±)-ABA were subtracted to account for any non-specific binding.

[2] = target: T1, spinach Rubisco; experiment: Rubisco activation (carbamylation), initial rate analysis with non-activated enzyme; assay type: biochemical; set-up: Commercially available Rubisco from spinach (Sigma-Aldrich); catalogue # R8000; purchased Sigma-Aldrich R8000
Method: Commercially available Rubisco from spinach (Sigma-Aldrich; catalogue # R8000; S1 Fig; specific activity 0.05 units / mg) was dissolved in a buffer containing 15 mM MgCl2 and 25 mM NaHCO3 at pH 8.0 for activation. Each assay (total volume, 1.0 mL) contained 50 mM Bicine (pH 8.0), 15 mM MgCl2, 10 mM NaCl, 5 mm DTT, 5 mM phosphocreatine, 5 mM ATP, 5 mM phosphoenolpyruvate, and 25 mM NaHCO3. This mixture was prepared before each set of experiments. Five minutes before initiating the reaction with the addition of activated Rubisco, the following were added: RuBP at the indicated concentrations), 0.4 mM NADH, 20 units mL-^-1 of glyceraldehyde-3-phosphate dehydrogenase, 20 units mL-^-1 of 3-phosphoglycerate kinase, and 2 units mL^-1 of creatine phosphokinase. Following the addition of activated Rubisco to a final concentration of 0.3 mg mL^-1, the NADH concentration was measured spectrophotometrically (λ = 340 nm) at 5 s intervals for 5 min. Absorbance values were converted to NADH concentrations using an extinction coefficient of 6.22 mM^-1. Reaction rates were evaluated from the slope of absorbance vs. time curves and plotted against concentration of RuBP. […] The non-activated Rubisco was then pre-incubated on ice for at least 10 minutes with or without the indicated concentrations of (+)-ABA, and the reactions initiated and monitored as described above. […]

[3] = target: ABA-receptor (PYL5); settings: PYL5 ref 48; read-out: Kd by ITC; cited from earlier work
[4] = target: T1, spinach Rubisco; experiment: Isothermal titration calorimetry; settings: for stoichiometry (n) by ITC: 20°C, Independent binding model
[5] = target: non-activated Rubisco; set-up: method as in earlier work; settings: 1 unit / mg ref 49, read-out: Kd by ITC; cited from earlier work
[6] = system: activated Rubisco; settings: read-out: Km, activated Rubisco-RuBP complex; activated Rubisco ref 13; cited from earlier work
[7] = target: non-activated Rubisco; set-up: method as in PMID 6417133; settings: non-activated Rubisco ref 13; read-out: KD, radiolabelled binding assay; cited from earlier work

CC1=CC(=O)CC(C)(C)[C@@]1(O)/C=C/C(C)=C/C(=O)O [trans-(+)-ABA]
Competition: displacement of [3H]-(±)-ABA by non-radiolabeled compound [1]: ineffective as competitors

CC1=CC(=O)CC(C)(C)[C@]1(O)/C=C/C(C)=C\C(=O)O [(-)-ABA]
Competition: displacement of [3H]-(±)-ABA by non-radiolabeled compound [1]: equally effective as competitors

CC(=C/C(=O)O)/C=C/[C@]1(O)[C@@]2(C)CO[C@]1(C)CC(=O)C2 [PA, phaseic acid]
Competition: displacement of [3H]-(±)-ABA by non-radiolabeled compound [1]: ineffective as competitors

Abscisic acid [(+)-ABA]
effect on initial rate (activation) ([2]; 100-250 μM (+)-ABA, 7 mM NaHCO3, S3 Fig, no effect on equilibrium rate (catalysis)): inhibitory effect
potency on Rubisco activation versus Rubisco catalysis ([2]; ratio of Ki values): more than 10 fold
Competition: displacement of [3H]-(±)-ABA by non-radiolabeled compound [1]: equally effective as competitors
Kd [3]: 1200 nM
stoichiometry (n) by ITC [4]: 19.9 and 19

O=C(COP(=O)(O)O)[C@H](O)[C@H](O)COP(=O)(O)O [RuBP, ribulose-1,5-bisphosphate]
Kd [5]: 300 nM
Kd [4]: 31400 nM
stoichiometry (n) by ITC [4]: 2.5
Km [6]: 21 µM
Kd [7]: 21 nM
